# Experimental data reported in patent US9580444B2, “Polycyclic pyrazolinone derivative and herbicide comprising same as effective component thereof” (priority 2013, dated 2017).
# System: Echinochloa oryzicola (barnyard grass)
# Assay: Test Example-1: herbicidal effect by a treatment before weeds are generated under submerged conditions
# Format: in vivo
# Details: 500 g a.i/ha, pre-emergence treatment, about 15 days after treatment, score 0-5
# How it was run: (§1)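 Weed seeds were sown in puddled paddy soil under flooding, then the diluted formulated compound was added to the water the same day at a predetermined dosage, and weed control was rated roughly 15 days afterwards in six stages (0–5).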
row,SMILES,Herbicidal effect Echinochloa oryzicola
1,C#CCOc1cc(-c2c(F)n3n(c2=O)CCCC3)c(Cl)cc1Cl [Example 1-358],5 (Herbicidal effect/phytotoxicity was 90% or greater)
2,C#CC(C)Oc1cc(-c2c(Cl)n3n(c2=O)CCOCC3)c(F)cc1Cl (stereo not drawn) [Example 1-245],5 (Herbicidal effect/phytotoxicity was 90% or greater)
3,COc1cc(-c2c(Cl)n3n(c2=O)CCCC3)c(Cl)cc1Cl [Example 1-292],5 (Herbicidal effect/phytotoxicity was 90% or greater)
4,COc1cc(-c2c(Cl)n3n(c2=O)CCOCC3)c(Cl)cc1Cl [Example 1-296],5 (Herbicidal effect/phytotoxicity was 90% or greater)

# System: Monochoria vaginalis (monochoria)
# Assay: as above
# Format: in vivo
# Details: 500 g a.i/ha, pre-emergence treatment, about 15 days after treatment, score 0-5
# How it was run: as §1
row,SMILES,Herbicidal effect Monochoria vaginalis
1,C#CCOc1cc(-c2c(F)n3n(c2=O)CCCC3)c(Cl)cc1Cl [Example 1-358],5 (Herbicidal effect/phytotoxicity was 90% or greater)
2,C#CC(C)Oc1cc(-c2c(Cl)n3n(c2=O)CCOCC3)c(F)cc1Cl (stereo not drawn) [Example 1-245],5 (Herbicidal effect/phytotoxicity was 90% or greater)
3,COc1cc(-c2c(Cl)n3n(c2=O)CCCC3)c(Cl)cc1Cl [Example 1-292],5 (Herbicidal effect/phytotoxicity was 90% or greater)
4,COc1cc(-c2c(Cl)n3n(c2=O)CCOCC3)c(Cl)cc1Cl [Example 1-296],5 (Herbicidal effect/phytotoxicity was 90% or greater)

# System: Eleocharis acicularis (needle spikerush)
# Assay: as above
# Format: in vivo
# Details: 500 g a.i/ha, pre-emergence treatment, about 15 days after treatment, score 0-5
# How it was run: as §1
row,SMILES,Herbicidal effect Eleocharis acicularis
1,C#CCOc1cc(-c2c(F)n3n(c2=O)CCCC3)c(Cl)cc1Cl [Example 1-358],5 (Herbicidal effect/phytotoxicity was 90% or greater)
2,C#CC(C)Oc1cc(-c2c(Cl)n3n(c2=O)CCOCC3)c(F)cc1Cl (stereo not drawn) [Example 1-245],5 (Herbicidal effect/phytotoxicity was 90% or greater)
3,COc1cc(-c2c(Cl)n3n(c2=O)CCCC3)c(Cl)cc1Cl [Example 1-292],5 (Herbicidal effect/phytotoxicity was 90% or greater)
4,COc1cc(-c2c(Cl)n3n(c2=O)CCOCC3)c(Cl)cc1Cl [Example 1-296],5 (Herbicidal effect/phytotoxicity was 90% or greater)

# System: Scirpus juncoides (bulrush)
# Assay: as above
# Format: in vivo
# Details: 500 g a.i/ha, pre-emergence treatment, about 15 days after treatment, score 0-5
# How it was run: as §1
row,SMILES,Herbicidal effect Scirpus juncoides
1,C#CCOc1cc(-c2c(F)n3n(c2=O)CCCC3)c(Cl)cc1Cl [Example 1-358],5 (Herbicidal effect/phytotoxicity was 90% or greater)
2,C#CC(C)Oc1cc(-c2c(Cl)n3n(c2=O)CCOCC3)c(F)cc1Cl (stereo not drawn) [Example 1-245],5 (Herbicidal effect/phytotoxicity was 90% or greater)
3,COc1cc(-c2c(Cl)n3n(c2=O)CCCC3)c(Cl)cc1Cl [Example 1-292],5 (Herbicidal effect/phytotoxicity was 90% or greater)
4,COc1cc(-c2c(Cl)n3n(c2=O)CCOCC3)c(Cl)cc1Cl [Example 1-296],5 (Herbicidal effect/phytotoxicity was 90% or greater)

# System: other annual broad leaf weeds (Lindernia procumbens, Rotala indica, Elatine triandra)
# Assay: as above
# Format: in vivo
# Details: 500 g a.i/ha, pre-emergence treatment, about 15 days after treatment, score 0-5
# How it was run: as §1
row,SMILES,Herbicidal effect Broadleaf weed
1,C#CCOc1cc(-c2c(F)n3n(c2=O)CCCC3)c(Cl)cc1Cl [Example 1-358],5 (Herbicidal effect/phytotoxicity was 90% or greater)
2,C#CC(C)Oc1cc(-c2c(Cl)n3n(c2=O)CCOCC3)c(F)cc1Cl (stereo not drawn) [Example 1-245],5 (Herbicidal effect/phytotoxicity was 90% or greater)
3,COc1cc(-c2c(Cl)n3n(c2=O)CCCC3)c(Cl)cc1Cl [Example 1-292],5 (Herbicidal effect/phytotoxicity was 90% or greater)
4,COc1cc(-c2c(Cl)n3n(c2=O)CCOCC3)c(Cl)cc1Cl [Example 1-296],5 (Herbicidal effect/phytotoxicity was 90% or greater)

# System: Cyperus difformis (smallflower umbrella plant)
# Assay: as above
# Format: in vivo
# Details: 500 g a.i/ha, pre-emergence treatment, about 15 days after treatment, score 0-5
# How it was run: as §1
row,SMILES,Herbicidal effect Cyperus difformis
1,C#CCOc1cc(-c2c(F)n3n(c2=O)CCCC3)c(Cl)cc1Cl [Example 1-358],5 (Herbicidal effect/phytotoxicity was 90% or greater)
2,C#CC(C)Oc1cc(-c2c(Cl)n3n(c2=O)CCOCC3)c(F)cc1Cl (stereo not drawn) [Example 1-245],5 (Herbicidal effect/phytotoxicity was 90% or greater)
3,COc1cc(-c2c(Cl)n3n(c2=O)CCCC3)c(Cl)cc1Cl [Example 1-292],5 (Herbicidal effect/phytotoxicity was 90% or greater)
4,COc1cc(-c2c(Cl)n3n(c2=O)CCOCC3)c(Cl)cc1Cl [Example 1-296],5 (Herbicidal effect/phytotoxicity was 90% or greater)

# System: corn
# Assay: Test Example-2: phytotoxicity by a soil treatment before weeds are generated under upland field conditions
# Format: in vivo
# Details: application amount 500 g a.i/ha, soil spray treatment before weeds are generated, about 21 days after the treatment, score 0 to 5
# Text: (§2) Using the formulation prepared according to the methods described above, the herbicidal effect of the bicyclic pyrazolinone derivative of the invention according to the methods shown in Test Examples below was examined. The herbicidal effect with respect to the test weeds or the phytotoxicity with respect to the test crops was examined according to the following criteria, and evaluated in six stage scores of 0 to 5. A vat having an area of 81 cm^2 and a depth of 3.5 cm was filled with upland soil, then, seeds of Amaranthus viridis (green amaranthus), Chenopodium album (common lambsquarters), and corn were seeded thereto, and the seeds were covered with soil of about 0.5 cm. Next day, a wettable powder or an emulsifiable concentrate of the compound of the present invention prepared according to Formulation Example was diluted, and a spray treatment was uniformly performed on the covered oil so as to be a predetermined dosage. The herbicidal effect with respect to the test weeds and the phytotoxicity with respect to corn about 21 days after the treatment were evaluated according to the evaluation criteria in six stages of 0 to 5 described above.
row,SMILES,Phytotoxicity Corn
1,C#CCOc1cc(-c2c(F)n3n(c2=O)CCCC3)c(Cl)cc1Cl [Example 1-358],0 (Herbicidal effect/phytotoxicity was 0% to 10%)
2,C#CC(C)Oc1cc(-c2c(Cl)n3n(c2=O)CCOCC3)c(F)cc1Cl (stereo not drawn) [Example 1-245],0 (Herbicidal effect/phytotoxicity was 0% to 10%)
3,COc1cc(-c2c(Cl)n3n(c2=O)CCCC3)c(Cl)cc1Cl [Example 1-292],2 (Herbicidal effect/phytotoxicity was 30% to 50%)
4,COc1cc(-c2c(Cl)n3n(c2=O)CCOCC3)c(Cl)cc1Cl [Example 1-296],0 (Herbicidal effect/phytotoxicity was 0% to 10%)

# System: Chenopodium album (common lambsquarters)
# Assay: Test Example-2: herbicidal effect by a soil treatment before weeds are generated under upland field conditions
# Format: in vivo
# Details: application amount 500 g a.i/ha, soil spray treatment before weeds are generated, about 21 days after the treatment, score 0 to 5
# Text: as §2
row,SMILES,Herbicidal effect Chenopodium album
1,C#CCOc1cc(-c2c(F)n3n(c2=O)CCCC3)c(Cl)cc1Cl [Example 1-358],5 (Herbicidal effect/phytotoxicity was 90% or greater)
2,C#CC(C)Oc1cc(-c2c(Cl)n3n(c2=O)CCOCC3)c(F)cc1Cl (stereo not drawn) [Example 1-245],5 (Herbicidal effect/phytotoxicity was 90% or greater)
3,COc1cc(-c2c(Cl)n3n(c2=O)CCCC3)c(Cl)cc1Cl [Example 1-292],5 (Herbicidal effect/phytotoxicity was 90% or greater)
4,COc1cc(-c2c(Cl)n3n(c2=O)CCOCC3)c(Cl)cc1Cl [Example 1-296],5 (Herbicidal effect/phytotoxicity was 90% or greater)

# System: Amaranthus viridis (green amaranthus)
# Assay: as above
# Format: in vivo
# Details: application amount 500 g a.i/ha, soil spray treatment before weeds are generated, about 21 days after the treatment, score 0 to 5
# Text: as §2
row,SMILES,Herbicidal effect Amaranthus viridis
1,C#CCOc1cc(-c2c(F)n3n(c2=O)CCCC3)c(Cl)cc1Cl [Example 1-358],5 (Herbicidal effect/phytotoxicity was 90% or greater)
2,C#CC(C)Oc1cc(-c2c(Cl)n3n(c2=O)CCOCC3)c(F)cc1Cl (stereo not drawn) [Example 1-245],5 (Herbicidal effect/phytotoxicity was 90% or greater)
3,COc1cc(-c2c(Cl)n3n(c2=O)CCCC3)c(Cl)cc1Cl [Example 1-292],5 (Herbicidal effect/phytotoxicity was 90% or greater)
4,COc1cc(-c2c(Cl)n3n(c2=O)CCOCC3)c(Cl)cc1Cl [Example 1-296],5 (Herbicidal effect/phytotoxicity was 90% or greater)

# System: corn
# Assay: Test Example-4: phytotoxicity by a foliage treatment after weeds are generated under upland field conditions
# Format: in vivo
# Details: 500 g a.i/ha, foliage treatment after emergence, about 14 days after treatment, score 0-5
# How it was run: (§3)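 Read-out is a visual six-stage score from 0 to 5 for weed control or corn phytotoxicity, taken about 14 days after a uniform foliar spray. Plants had grown 14 days from seed in upland soil before the compound was applied at a predetermined dosage in 4000 L water per hectare.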
row,SMILES,Phytotoxicity Corn
1,C#CCOc1cc(-c2c(F)n3n(c2=O)CCCC3)c(Cl)cc1Cl [Example 1-358],1 (Herbicidal effect/phytotoxicity was 10% to 30%)
2,C#CC(C)Oc1cc(-c2c(Cl)n3n(c2=O)CCOCC3)c(F)cc1Cl (stereo not drawn) [Example 1-245],1 (Herbicidal effect/phytotoxicity was 10% to 30%)
3,COc1cc(-c2c(Cl)n3n(c2=O)CCCC3)c(Cl)cc1Cl [Example 1-292],1 (Herbicidal effect/phytotoxicity was 10% to 30%)

# System: Abutilon theophrasti (velvetleaf)
# Assay: Test Example-4: herbicidal effect by a foliage treatment after weeds are generated under upland field conditions
# Format: in vivo
# Details: 500 g a.i/ha, foliage treatment after emergence, about 14 days after treatment, score 0-5
# How it was run: as §3
row,SMILES,Herbicidal effect Abutilon theophrast
1,C#CCOc1cc(-c2c(F)n3n(c2=O)CCCC3)c(Cl)cc1Cl [Example 1-358],5 (Herbicidal effect/phytotoxicity was 90% or greater)
2,C#CC(C)Oc1cc(-c2c(Cl)n3n(c2=O)CCOCC3)c(F)cc1Cl (stereo not drawn) [Example 1-245],5 (Herbicidal effect/phytotoxicity was 90% or greater)
3,COc1cc(-c2c(Cl)n3n(c2=O)CCCC3)c(Cl)cc1Cl [Example 1-292],5 (Herbicidal effect/phytotoxicity was 90% or greater)

# System: Chenopodium album (common lambsquarters)
# Assay: as above
# Format: in vivo
# Details: 500 g a.i/ha, foliage treatment after emergence, about 14 days after treatment, score 0-5
# How it was run: as §3
row,SMILES,Herbicidal effect Chenopodium album
1,C#CCOc1cc(-c2c(F)n3n(c2=O)CCCC3)c(Cl)cc1Cl [Example 1-358],5 (Herbicidal effect/phytotoxicity was 90% or greater)
2,C#CC(C)Oc1cc(-c2c(Cl)n3n(c2=O)CCOCC3)c(F)cc1Cl (stereo not drawn) [Example 1-245],5 (Herbicidal effect/phytotoxicity was 90% or greater)
3,COc1cc(-c2c(Cl)n3n(c2=O)CCCC3)c(Cl)cc1Cl [Example 1-292],5 (Herbicidal effect/phytotoxicity was 90% or greater)

# System: Amaranthus viridis (green amaranthus)
# Assay: as above
# Format: in vivo
# Details: 500 g a.i/ha, foliage treatment after emergence, about 14 days after treatment, score 0-5
# How it was run: as §3
row,SMILES,Herbicidal effect Amaranthus viridis
1,C#CCOc1cc(-c2c(F)n3n(c2=O)CCCC3)c(Cl)cc1Cl [Example 1-358],5 (Herbicidal effect/phytotoxicity was 90% or greater)
2,C#CC(C)Oc1cc(-c2c(Cl)n3n(c2=O)CCOCC3)c(F)cc1Cl (stereo not drawn) [Example 1-245],5 (Herbicidal effect/phytotoxicity was 90% or greater)
3,COc1cc(-c2c(Cl)n3n(c2=O)CCCC3)c(Cl)cc1Cl [Example 1-292],5 (Herbicidal effect/phytotoxicity was 90% or greater)
